# In PubChem BioAssay (NCI):
#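 Five compound concentrations were applied to cells in 96-well plates for 48 hours; endpoints were derived by simple linear interpolation of the resulting dose-response curve. Here, GI50 denotes the concentration required for 50% inhibition of growth. At the TGI there is no net growth.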
# What was measured:
# Test in all cases: NCI tumour cell line growth inhibition, 48 h
# SK-MEL-2 melanoma = system: SK-MEL-2 melanoma
# M14 melanoma = system: M14 melanoma
# TK-10 renal = system: TK-10 renal
# UACC-257 melanoma = system: UACC-257 melanoma
# EKVX NSCLC = system: EKVX NSCLC
# A549 NSCLC = system: A549 NSCLC
# HL-60(TB) leukemia = system: HL-60(TB) leukemia
# UO-31 renal = system: UO-31 renal
# MALME-3M melanoma = system: MALME-3M melanoma
# SF-539 CNS = system: SF-539 CNS
# RXF 393 renal = system: RXF 393 renal
# LOX IMVI melanoma = system: LOX IMVI melanoma
# NCI-H522 lung = system: NCI-H522 lung
# SK-MEL-5 melanoma = system: SK-MEL-5 melanoma
# SNB-75 CNS = system: SNB-75 CNS
# MDA-MB-231 breast = system: MDA-MB-231 breast
# HS 578T breast = system: HS 578T breast
# NCI-H23 lung = system: NCI-H23 lung
# OVCAR-8 ovarian = system: OVCAR-8 ovarian
# 786-0 renal = system: 786-0 renal
# A498 renal = system: A498 renal
# NCI-H460 lung = system: NCI-H460 lung
# HOP-62 NSCLC = system: HOP-62 NSCLC
# OVCAR-3 ovarian = system: OVCAR-3 ovarian
# HT29 colon = system: HT29 colon
# BT-549 breast = system: BT-549 breast
# SF-268 CNS = system: SF-268 CNS
# CAKI-1 renal = system: CAKI-1 renal
# UACC-62 melanoma = system: UACC-62 melanoma
# HCT-116 colon = system: HCT-116 colon
# COLO 205 colon = system: COLO 205 colon
# IGROV1 ovarian = system: IGROV1 ovarian
# PC-3 prostate = system: PC-3 prostate
# MOLT-4 leukemia = system: MOLT-4 leukemia
# U251 CNS = system: U251 CNS
# HOP-92 NSCLC = system: HOP-92 NSCLC
# MCF7 breast = system: MCF7 breast
# K-562 leukemia = system: K-562 leukemia
# HCT-15 colon = system: HCT-15 colon
# SK-OV-3 ovarian = system: SK-OV-3 ovarian
# NCI-H226 lung = system: NCI-H226 lung
# SK-MEL-28 melanoma = system: SK-MEL-28 melanoma
# SF-295 CNS = system: SF-295 CNS
# SW-620 colon = system: SW-620 colon
# KM12 colon = system: KM12 colon
# DU-145 prostate = system: DU-145 prostate
# SR leukemia = system: SR leukemia
# ACHN renal = system: ACHN renal
# OVCAR-5 ovarian = system: OVCAR-5 ovarian
# MDA-MB-435 = system: MDA-MB-435
# OVCAR-4 ovarian = system: OVCAR-4 ovarian
# HCC-2998 colon = system: HCC-2998 colon
# SNB-19 CNS = system: SNB-19 CNS
# SN12C renal = system: SN12C renal
# T-47D breast = system: T-47D breast
# RPMI-8226 leukemia = system: RPMI-8226 leukemia
compound,measurement,setting,value
CC(C)(O)c1coc(S(=O)(=O)/N=C(\O)Nc2c3c(cc4c2CCC4)CCC3)c1,GI50,SK-MEL-2 melanoma,> 100 µM
same,TGI,SK-MEL-2 melanoma,> 100 µM
same,GI50,M14 melanoma,> 100 µM
same,TGI,M14 melanoma,> 100 µM
same,GI50,TK-10 renal,> 100 µM
same,TGI,TK-10 renal,> 100 µM
same,GI50,UACC-257 melanoma,> 100 µM
same,TGI,UACC-257 melanoma,> 100 µM
same,GI50,EKVX NSCLC,> 100 µM
same,TGI,EKVX NSCLC,> 100 µM
same,GI50,A549 NSCLC,> 100 µM
same,TGI,A549 NSCLC,> 100 µM
same,GI50,HL-60(TB) leukemia,> 100 µM
same,TGI,HL-60(TB) leukemia,> 100 µM
same,GI50,UO-31 renal,> 100 µM
same,TGI,UO-31 renal,> 100 µM
same,GI50,MALME-3M melanoma,> 100 µM
same,TGI,MALME-3M melanoma,> 100 µM
same,GI50,SF-539 CNS,> 100 µM
same,TGI,SF-539 CNS,> 100 µM
same,GI50,RXF 393 renal,> 100 µM
same,TGI,RXF 393 renal,> 100 µM
same,GI50,LOX IMVI melanoma,> 100 µM
same,TGI,LOX IMVI melanoma,> 100 µM
same,GI50,NCI-H522 lung,> 100 µM
same,TGI,NCI-H522 lung,> 100 µM
same,GI50,SK-MEL-5 melanoma,> 100 µM
same,TGI,SK-MEL-5 melanoma,> 100 µM
same,GI50,SNB-75 CNS,> 100 µM
same,TGI,SNB-75 CNS,> 100 µM
same,GI50,MDA-MB-231 breast,> 100 µM
same,TGI,MDA-MB-231 breast,> 100 µM
same,GI50,HS 578T breast,> 100 µM
same,TGI,HS 578T breast,> 100 µM
same,GI50,NCI-H23 lung,> 100 µM
same,TGI,NCI-H23 lung,> 100 µM
same,GI50,OVCAR-8 ovarian,> 100 µM
same,TGI,OVCAR-8 ovarian,> 100 µM
same,GI50,786-0 renal,> 100 µM
same,TGI,786-0 renal,> 100 µM
same,GI50,A498 renal,> 100 µM
same,TGI,A498 renal,> 100 µM
same,GI50,NCI-H460 lung,> 100 µM
same,TGI,NCI-H460 lung,> 100 µM
same,GI50,HOP-62 NSCLC,> 100 µM
same,TGI,HOP-62 NSCLC,> 100 µM
same,GI50,OVCAR-3 ovarian,> 100 µM
same,TGI,OVCAR-3 ovarian,> 100 µM
same,GI50,HT29 colon,> 100 µM
same,TGI,HT29 colon,> 100 µM
same,GI50,BT-549 breast,> 100 µM
same,TGI,BT-549 breast,> 100 µM
same,GI50,SF-268 CNS,> 100 µM
same,TGI,SF-268 CNS,> 100 µM
same,GI50,CAKI-1 renal,> 100 µM
same,TGI,CAKI-1 renal,> 100 µM
same,GI50,UACC-62 melanoma,> 100 µM
same,TGI,UACC-62 melanoma,> 100 µM
same,GI50,HCT-116 colon,> 100 µM
same,TGI,HCT-116 colon,> 100 µM
same,GI50,COLO 205 colon,> 100 µM
same,TGI,COLO 205 colon,> 100 µM
same,GI50,IGROV1 ovarian,> 100 µM
same,TGI,IGROV1 ovarian,> 100 µM
same,GI50,PC-3 prostate,> 100 µM
same,TGI,PC-3 prostate,> 100 µM
same,GI50,MOLT-4 leukemia,> 100 µM
same,TGI,MOLT-4 leukemia,> 100 µM
same,GI50,U251 CNS,> 100 µM
same,TGI,U251 CNS,> 100 µM
same,GI50,HOP-92 NSCLC,91.9 µM
same,TGI,HOP-92 NSCLC,> 100 µM
same,GI50,MCF7 breast,> 100 µM
same,TGI,MCF7 breast,> 100 µM
same,GI50,K-562 leukemia,> 100 µM
same,TGI,K-562 leukemia,> 100 µM
same,GI50,HCT-15 colon,> 100 µM
same,TGI,HCT-15 colon,> 100 µM
same,GI50,SK-OV-3 ovarian,> 100 µM
same,TGI,SK-OV-3 ovarian,> 100 µM
same,GI50,NCI-H226 lung,> 100 µM
same,TGI,NCI-H226 lung,> 100 µM
same,GI50,SK-MEL-28 melanoma,> 100 µM
same,TGI,SK-MEL-28 melanoma,> 100 µM
same,GI50,SF-295 CNS,> 100 µM
same,TGI,SF-295 CNS,> 100 µM
same,GI50,SW-620 colon,> 100 µM
same,TGI,SW-620 colon,> 100 µM
same,GI50,KM12 colon,> 100 µM
same,TGI,KM12 colon,> 100 µM
same,GI50,DU-145 prostate,> 100 µM
same,TGI,DU-145 prostate,> 100 µM
same,GI50,SR leukemia,> 100 µM
same,TGI,SR leukemia,> 100 µM
same,GI50,ACHN renal,> 100 µM
same,TGI,ACHN renal,> 100 µM
same,GI50,OVCAR-5 ovarian,> 100 µM
same,TGI,OVCAR-5 ovarian,> 100 µM
same,GI50,MDA-MB-435,> 100 µM
same,TGI,MDA-MB-435,> 100 µM
same,GI50,OVCAR-4 ovarian,> 100 µM
same,TGI,OVCAR-4 ovarian,> 100 µM
same,GI50,HCC-2998 colon,> 100 µM
same,TGI,HCC-2998 colon,> 100 µM
same,GI50,SNB-19 CNS,> 100 µM
same,TGI,SNB-19 CNS,> 100 µM
same,GI50,SN12C renal,> 100 µM
same,TGI,SN12C renal,> 100 µM
same,GI50,T-47D breast,> 100 µM
same,TGI,T-47D breast,> 100 µM
same,GI50,RPMI-8226 leukemia,> 100 µM
same,TGI,RPMI-8226 leukemia,> 100 µM
